Data taken from PubChem BioAssay (NCI).
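Protocol summary: plate cells (96-well), add compound at 5 concentrations, incubate 48 h, interpolate endpoints linearly. GI50: concentration for 50% inhibition of growth. TGI is the concentration that stops growth completely.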

Assays:
Assay in all cases: NCI anticancer screen, dose series, 48 h
IGROV1 ovarian = system: IGROV1 ovarian
MDA-MB-231 breast = system: MDA-MB-231 breast
MDA-MB-435 = system: MDA-MB-435
NCI-H522 lung = system: NCI-H522 lung
OVCAR-3 ovarian = system: OVCAR-3 ovarian
OVCAR-5 ovarian = system: OVCAR-5 ovarian
SN12C renal = system: SN12C renal
BT-549 breast = system: BT-549 breast

For O=C(Nc1cccc(-n2ccc3c(NC(=O)c4ccccc4)ncnc32)c1)Nc1ccc(Cl)c(C(F)(F)F)c1, the GI50 (IGROV1 ovarian) was 2920 nM, the TGI (IGROV1 ovarian) was 17.1 µM and the GI50 (MDA-MB-231 breast) was 2060 nM. The TGI (MDA-MB-231 breast) was 7.94 µM, the GI50 (MDA-MB-435) was 1440 nM and the TGI (MDA-MB-435) was 5.6 µM. For the same compound, the GI50 (NCI-H522 lung) was 1360 nM, the TGI (NCI-H522 lung) was 6.31 µM and the GI50 (OVCAR-3 ovarian) was 2620 nM. It also gave a TGI (OVCAR-3 ovarian) of 8.9 µM, a GI50 (OVCAR-5 ovarian) of 2380 nM and a TGI (OVCAR-5 ovarian) of 9.69 µM. The GI50 (SN12C renal) was 3.09 µM and the TGI (SN12C renal) was 9.86 µM.
With C[C@]12CC[C@H]3[C@@H](CC=C4C[C@@H](O)CC[C@@]43C)[C@@H]1C/C(=C\c1cccnc1)[C@@H]2O the TGI (BT-549 breast) was 48.9 µM, the TGI (IGROV1 ovarian) was > 100 µM and the TGI (MDA-MB-231 breast) was 57.8 µM. For the same compound, the TGI (MDA-MB-435) was > 100 µM, the TGI (NCI-H522 lung) was 42.5 µM and the TGI (OVCAR-5 ovarian) was > 100 µM. The TGI (SN12C renal) was 55.2 µM.
Work on CN(CCN)[C@H](CSSC[C@@H](c1ccccc1O)N(C)CCN)c1ccccc1O yielded a TGI (BT-549 breast) of 25 µM, a TGI (MDA-MB-231 breast) of 26.5 µM and a TGI (MDA-MB-435) of 42.8 µM. For the same compound, the TGI (NCI-H522 lung) was 33 µM, the TGI (OVCAR-3 ovarian) was 28.6 µM and the TGI (OVCAR-5 ovarian) was 28.6 µM. The TGI (SN12C renal) was 23.2 µM.
Clc1cc(N/N=C(\c2ccccc2)c2ccccn2)ncn1 was tested, and the TGI (BT-549 breast) was > 100 µM, the TGI (IGROV1 ovarian) was 89.9 µM and the TGI (MDA-MB-231 breast) was 0.0669 µM. The TGI (MDA-MB-435) was > 100 µM, the TGI (OVCAR-3 ovarian) was > 100 µM and the TGI (OVCAR-5 ovarian) was > 100 µM.
In the case of CC(=O)N[C@@H](Cc1ccc(O)cn1)C(=O)NCc1ccc(Cl)cc1, the TGI (BT-549 breast) is reported as > 100 µM, the TGI (IGROV1 ovarian) is reported as > 100 µM and the TGI (MDA-MB-435) is reported as > 100 µM. The TGI (NCI-H522 lung) was > 100 µM, the TGI (OVCAR-3 ovarian) was > 100 µM and the TGI (OVCAR-5 ovarian) was > 100 µM. For the same compound, the TGI (SN12C renal) was > 100 µM.
Work on CC(=O)Oc1ccc2cc(Oc3cc(Cl)c(Cl)cc3Cl)c(=O)oc2c1 yielded a TGI (BT-549 breast) of 26.7 µM, a TGI (IGROV1 ovarian) of 32.1 µM and a TGI (MDA-MB-231 breast) of 33.7 µM. The TGI (NCI-H522 lung) was 34.6 µM, the TGI (OVCAR-3 ovarian) was 31.6 µM and the TGI (OVCAR-5 ovarian) was 71.2 µM. The TGI (SN12C renal) was 28.1 µM.
Compound CCCCCCCCCCCC1N=C(N)N=C(N)N1c1cccc(Br)c1 (stereo not drawn) has a GI50 (IGROV1 ovarian) of 1140 nM, a TGI (IGROV1 ovarian) of 2.58 µM and a GI50 (MDA-MB-435) of 523 nM. It also gave a TGI (MDA-MB-435) of 1.79 µM, a GI50 (NCI-H522 lung) of 1510 nM and a TGI (NCI-H522 lung) of 2.95 µM. For the same compound, the GI50 (OVCAR-5 ovarian) was 811 nM and the TGI (OVCAR-5 ovarian) was 2.22 µM.
In the case of CC(C)c1cc(=O)[nH]c2cc(N)ccc12, the TGI (BT-549 breast) is reported as > 100 µM, the TGI (IGROV1 ovarian) is reported as > 100 µM and the TGI (MDA-MB-231 breast) is reported as > 100 µM. The TGI (MDA-MB-435) was > 100 µM, the TGI (OVCAR-3 ovarian) was > 100 µM and the TGI (OVCAR-5 ovarian) was > 100 µM. The TGI (SN12C renal) was > 100 µM.
CNC(=O)[C@H](Cc1ccccc1)NC(=O)N(CCC#N)CCN(C(=O)N[C@@H](Cc1ccccc1)C(=O)OC)c1ccccc1 was tested, and the TGI (BT-549 breast) was > 100 µM, the TGI (MDA-MB-231 breast) was > 100 µM and the TGI (MDA-MB-435) was > 100 µM. For the same compound, the TGI (NCI-H522 lung) was > 100 µM, the TGI (OVCAR-3 ovarian) was > 100 µM and the TGI (OVCAR-5 ovarian) was > 100 µM.
For CC1CC(=O)N(N(C)C)C2(C#N)C(=O)N=C(N)C12C#N (stereo not drawn), the TGI (IGROV1 ovarian) was > 100 µM, the TGI (MDA-MB-231 breast) was > 100 µM and the TGI (MDA-MB-435) was > 100 µM. For the same compound, the TGI (NCI-H522 lung) was > 100 µM, the TGI (OVCAR-5 ovarian) was > 100 µM and the TGI (SN12C renal) was > 100 µM.
Work on CC1OC(OC2C(O)CC(OC3C(O)CC(OC4CCC5(C)C(CCC6C5CCC5(C)C(C7=CC(=O)OC7)C(O)CC65O)C4)OC3C)OC2C)CC(O)C1O (stereo not drawn) yielded a TGI (BT-549 breast) of 0.339 µM, a TGI (IGROV1 ovarian) of 9.81 µM and a TGI (MDA-MB-435) of 1.27 µM. The TGI (NCI-H522 lung) was 0.157 µM, the TGI (OVCAR-3 ovarian) was 0.497 µM and the TGI (OVCAR-5 ovarian) was 5.62 µM.
For Cc1ccc(C(=O)N/N=C(\N=Nc2ccc([N+](=O)[O-])cc2)c2ccc(N(CCC#N)CCC#N)cc2C)cc1, the TGI (BT-549 breast) was > 100 µM, the TGI (IGROV1 ovarian) was > 100 µM and the TGI (MDA-MB-231 breast) was > 100 µM. For the same compound, the TGI (MDA-MB-435) was > 100 µM, the TGI (OVCAR-3 ovarian) was > 100 µM and the TGI (OVCAR-5 ovarian) was > 100 µM. The TGI (SN12C renal) was > 100 µM.
Compound Cc1ccc(S(=O)(=O)OC[C@@]2(C)CC[C@]3(C)CC[C@]4(C)C(=C3C2)C=C[C@@H]2[C@@]3(C)CCCNC(C)(C)[C@@H]3CC[C@]24C)cc1 has a GI50 (MDA-MB-435) of 1640 nM, a TGI (MDA-MB-435) of 3.07 µM and a GI50 (NCI-H522 lung) of 1700 nM. It also gave a TGI (NCI-H522 lung) of 3.36 µM, a GI50 (OVCAR-5 ovarian) of 1770 nM and a TGI (OVCAR-5 ovarian) of 3.21 µM.
CCOC(=O)C(O)(CC1=NC(C(=O)OC)(C(=O)OC)C(c2cccc(C=O)c2)O1)C(=O)OCC (stereo not drawn) was tested, and the TGI (BT-549 breast) was > 100 µM, the TGI (IGROV1 ovarian) was > 100 µM and the TGI (MDA-MB-435) was > 100 µM. For the same compound, the TGI (OVCAR-3 ovarian) was > 100 µM, the TGI (OVCAR-5 ovarian) was > 100 µM and the TGI (SN12C renal) was > 100 µM.
Cc1ccc(S(=O)(=O)N/N=C2\C=CC3(CC2)C(=O)N(I)c2ccccc23)cc1 (stereo not drawn) was tested, and the TGI (MDA-MB-231 breast) was > 100 µM, the TGI (MDA-MB-435) was > 100 µM and the TGI (OVCAR-3 ovarian) was > 100 µM. For the same compound, the TGI (OVCAR-5 ovarian) was > 100 µM and the TGI (SN12C renal) was > 100 µM.
In the case of CC1(C)N=C(C(N)=O)c2[nH]cnc2N1, the TGI (IGROV1 ovarian) is reported as > 100 µM, the TGI (MDA-MB-231 breast) is reported as > 100 µM and the TGI (MDA-MB-435) is reported as > 100 µM. For the same compound, the TGI (NCI-H522 lung) was > 100 µM, the TGI (OVCAR-3 ovarian) was > 100 µM and the TGI (OVCAR-5 ovarian) was > 100 µM. For the same compound, the TGI (SN12C renal) was > 100 µM.
For CCOC(=O)N1c2ccccc2C(C)=CC(C)C1C (stereo not drawn), the TGI (IGROV1 ovarian) was > 100 µM, the TGI (MDA-MB-231 breast) was 78.4 µM and the TGI (MDA-MB-435) was 15.8 µM. For the same compound, the TGI (NCI-H522 lung) was 89.6 µM, the TGI (OVCAR-3 ovarian) was 51.1 µM and the TGI (OVCAR-5 ovarian) was > 100 µM. The TGI (SN12C renal) was > 100 µM.
In the case of COC(=O)CN1CCN(c2cccc3c2CCCC3)CC1, the TGI (IGROV1 ovarian) is reported as > 100 µM, the TGI (MDA-MB-231 breast) is reported as > 100 µM and the TGI (MDA-MB-435) is reported as > 100 µM. The TGI (NCI-H522 lung) was > 100 µM, the TGI (OVCAR-3 ovarian) was 72.4 µM and the TGI (OVCAR-5 ovarian) was > 100 µM. The TGI (SN12C renal) was > 100 µM.
With Cc1ccc(/C=c2\cc3oc(=O)c4cccc(c4-3)c2=O)cc1 the TGI (IGROV1 ovarian) was > 100 µM, the TGI (MDA-MB-231 breast) was > 100 µM and the TGI (MDA-MB-435) was > 100 µM. For the same compound, the TGI (NCI-H522 lung) was > 100 µM, the TGI (OVCAR-3 ovarian) was > 100 µM and the TGI (OVCAR-5 ovarian) was > 100 µM. For the same compound, the TGI (SN12C renal) was > 100 µM.
With CSc1cc(Cl)c(C)cc1S(=O)(=O)NC(=O)NNc1ccc(C)cc1 the TGI (IGROV1 ovarian) was > 100 µM, the TGI (MDA-MB-231 breast) was > 100 µM and the TGI (MDA-MB-435) was > 100 µM. For the same compound, the TGI (NCI-H522 lung) was > 100 µM, the TGI (OVCAR-3 ovarian) was > 100 µM and the TGI (OVCAR-5 ovarian) was > 100 µM. For the same compound, the TGI (SN12C renal) was > 100 µM.
With C[N+]1(C)CCCC(C#N)(c2ccccc2)CC1 (stereo not drawn) the TGI (IGROV1 ovarian) was > 100 µM and the TGI (OVCAR-5 ovarian) was > 100 µM.
In the case of CCOC(=O)C(C)c1nc2cc(F)c(F)cc2[nH]c1=O (stereo not drawn), the TGI (BT-549 breast) is reported as > 100 µM, the TGI (MDA-MB-231 breast) is reported as > 100 µM and the TGI (MDA-MB-435) is reported as > 100 µM. For the same compound, the TGI (OVCAR-3 ovarian) was > 100 µM, the TGI (OVCAR-5 ovarian) was > 100 µM and the TGI (SN12C renal) was > 100 µM.
